Source: ChEMBL document CHEMBL1201862, “PubChem BioAssay data set” (2004)
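How tested: cells in 96-well plates exposed to compound for 48 hours at five concentrations. GI50 = concentration required for 50% inhibition of growth.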 Calls of active or inactive are those of the source. Rule as the data show it: active = GI50 up to about 1.1 µM and inactive = higher.

Experiments:
Assay in all cases: DTP human tumour cell line panel, 48 h
[1] = test system: ACHN
[2] = test system: IGROV-1
[3] = test system: HOP-18
[4] = test system: HCT-116
[5] = test system: SK-OV-3
[6] = test system: KM-20L2
[7] = test system: NCI-H522
[8] = test system: SF-295
[9] = test system: LXFL 529
[10] = test system: SW-620
[11] = test system: DMS-273
[12] = test system: M19-MEL
[13] = test system: HOP-92
[14] = test system: NCI-H226
[15] = test system: HCC 2998
[16] = test system: OVCAR-3
[17] = test system: KM12
[18] = test system: LOX IMVI
[19] = test system: UACC-62
[20] = test system: Malme-3M
[21] = test system: COLO 205
[22] = test system: CCRF-CEM
[23] = test system: UACC-257
[24] = test system: 786-0
[25] = test system: A549
[26] = test system: A498
[27] = test system: SF-268
[28] = test system: SNB-78
[29] = test system: SF-539
[30] = test system: M14
[31] = test system: SK-MEL-5
[32] = test system: RXF 631
[33] = test system: HOP-62
[34] = test system: HCT-15
[35] = test system: HL-60
[36] = test system: K562
[37] = test system: OVCAR-5
[38] = test system: NCI-H23
[39] = test system: DLD-1
[40] = test system: SNB-75
[41] = test system: RPMI-8226
[42] = test system: OVCAR-4
[43] = test system: SNB-19
[44] = test system: SK-MEL-28
[45] = test system: EKVX
[46] = test system: HT-29
[47] = test system: TK-10
[48] = test system: U-251
[49] = test system: OVCAR-8
[50] = test system: SN12C
[51] = test system: MOLT-4
[52] = test system: SR
[53] = test system: NCI-H460
[54] = test system: CAKI-1
[55] = test system: RXF 393
[56] = test system: SK-MEL-2
[57] = test system: DMS-114
[58] = test system: UO-31
[59] = test system: XF498

CC(=O)NC1C(OCc2ccccc2)OC(COC(=O)CCCCCNc2ccc([N+](=O)[O-])c3[nH]c4ccc(O)cc4c(=O)c23)C(O)C1OC(C)C(=O)N[C@@H](C)C(=O)N[C@H](CCC(=O)OCc1ccccc1)C(N)=O (some centres undefined)
GI50 [1]: 17.3 µM (inactive)
GI50 [2]: 7.24 µM (inactive)
GI50 [3]: 1.71 µM (inactive)
GI50 [4]: 0.321 µM (active)
GI50 [5]: 2.99 µM (inactive)
GI50 [6]: 0.234 µM (active)
GI50 [7]: 1.6 µM (inactive)
GI50 [8]: 3.08 µM (inactive)
GI50 [9]: 1.5 µM (inactive)
GI50 [10]: 0.465 µM (active)
GI50 [11]: 1.49 µM (inactive)
GI50 [12]: 5.68 µM (inactive)
GI50 [13]: 0.879 µM (active)
GI50 [14]: 4.9 µM (inactive)
GI50 [15]: 3.25 µM (inactive)
GI50 [16]: 2.15 µM (inactive)
GI50 [17]: 1.39 µM (inactive)
GI50 [18]: 2.39 µM (inactive)
GI50 [19]: 1.77 µM (inactive)
GI50 [20]: 1.32 µM (inactive)
GI50 [21]: 1.55 µM (inactive)
GI50 [22]: 3.06 µM (inactive)
GI50 [23]: 2.45 µM (inactive)
GI50 [24]: 1.86 µM (inactive)
GI50 [25]: 1.26 µM (inactive)
GI50 [26]: 2.1 µM (inactive)
GI50 [27]: 2.31 µM (inactive)
GI50 [28]: 3.16 µM (inactive)
GI50 [29]: 3.4 µM (inactive)
GI50 [30]: 1.49 µM (inactive)
GI50 [31]: 8.53 µM (inactive)
GI50 [32]: 0.759 µM (active)
GI50 [33]: 5.9 µM (inactive)
GI50 [34]: 0.745 µM
GI50 [35]: 2.77 µM (inactive)
GI50 [36]: 1.49 µM (inactive)
GI50 [37]: 1.06 µM (active)
GI50 [38]: 1.35 µM (inactive)
GI50 [39]: 1.8 µM (inactive)
GI50 [40]: 4.13 µM (inactive)
GI50 [41]: 0.506 µM (active)
GI50 [42]: 3.34 µM (inactive)
GI50 [43]: 3 µM (inactive)
GI50 [44]: 2.69 µM (inactive)
GI50 [45]: 3.94 µM (inactive)
GI50 [46]: 0.401 µM (active)
GI50 [47]: 3.06 µM (inactive)
GI50 [48]: 2.45 µM (inactive)
GI50 [49]: 1.64 µM (inactive)
GI50 [50]: 6.59 µM (inactive)
GI50 [51]: 1.87 µM (inactive)
GI50 [52]: 0.522 µM (active)
GI50 [53]: 0.261 µM (active)
GI50 [54]: 1.56 µM (inactive)
GI50 [55]: 1.6 µM (inactive)
GI50 [56]: 1.95 µM (inactive)

CCOC(=O)c1cnc2sc3ccc4ccccc4c3n2c1=O
GI50 [1]: 33.1 µM (inactive)
GI50 [2]: 42.5 µM (inactive)
GI50 [3]: > 100 µM (inactive)
GI50 [4]: 41.4 µM (inactive)
GI50 [5]: 78.5 µM (inactive)
GI50 [6]: 72.1 µM (inactive)
GI50 [8]: 58.9 µM (inactive)
GI50 [9]: 55.2 µM (inactive)
GI50 [10]: > 100 µM (inactive)
GI50 [11]: 95.5 µM (inactive)
GI50 [12]: > 100 µM (inactive)
GI50 [13]: 28.1 µM (inactive)
GI50 [14]: 30.1 µM (inactive)
GI50 [15]: > 100 µM (inactive)
GI50 [16]: 82.2 µM (inactive)
GI50 [17]: 68.4 µM (inactive)
GI50 [18]: 47.9 µM (inactive)
GI50 [19]: 77.6 µM (inactive)
GI50 [57]: 71.6 µM (inactive)
GI50 [20]: 63.2 µM (inactive)
GI50 [21]: 79.3 µM (inactive)
GI50 [22]: 25.1 µM (inactive)
GI50 [23]: 87.9 µM (inactive)
GI50 [24]: > 100 µM (inactive)
GI50 [25]: 53.3 µM (inactive)
GI50 [27]: 92.7 µM (inactive)
GI50 [28]: > 100 µM (inactive)
GI50 [29]: 30.1 µM (inactive)
GI50 [58]: 23.9 µM (inactive)
GI50 [30]: 81.1 µM (inactive)
GI50 [31]: 32.1 µM (inactive)
GI50 [32]: 64.6 µM (inactive)
GI50 [33]: > 100 µM (inactive)
GI50 [34]: 46.3 µM
GI50 [35]: 21.2 µM (inactive)
GI50 [36]: 37.6 µM (inactive)
GI50 [37]: > 100 µM (inactive)
GI50 [38]: 62.5 µM (inactive)
GI50 [39]: > 100 µM (inactive)
GI50 [40]: > 100 µM (inactive)
GI50 [41]: 27.9 µM (inactive)
GI50 [42]: 38.9 µM (inactive)
GI50 [43]: > 100 µM (inactive)
GI50 [44]: 98.6 µM (inactive)
GI50 [45]: 74 µM (inactive)
GI50 [46]: 87.5 µM (inactive)
GI50 [47]: 62.5 µM (inactive)
GI50 [48]: 94 µM (inactive)
GI50 [49]: 48.6 µM (inactive)
GI50 [50]: 39.3 µM (inactive)
GI50 [51]: 28.1 µM (inactive)
GI50 [52]: 40.1 µM (inactive)
GI50 [53]: > 100 µM (inactive)
GI50 [54]: 29.5 µM (inactive)
GI50 [55]: > 100 µM (inactive)
GI50 [56]: 41.5 µM (inactive)

CC1CN1c1c(C(=O)/C=C/c2ccc(F)cc2)c(-c2ccccc2)nn(C)c1=O (centres undefined)
GI50 [1]: 16.3 µM (inactive)
GI50 [2]: 19.8 µM (inactive)
GI50 [3]: 15.2 µM (inactive)
GI50 [4]: 13.5 µM (inactive)
GI50 [5]: > 10 µM (inactive)
GI50 [6]: 17.7 µM (inactive)
GI50 [7]: > 10 µM (inactive)
GI50 [8]: 16.2 µM (inactive)
GI50 [9]: 16.7 µM (inactive)
GI50 [10]: 17.9 µM (inactive)
GI50 [11]: > 10 µM (inactive)
GI50 [12]: 14.6 µM (inactive)
GI50 [13]: 6.58 µM (inactive)
GI50 [14]: 11.9 µM (inactive)
GI50 [15]: 15.2 µM (inactive)
GI50 [16]: 15.4 µM (inactive)
GI50 [17]: 15.7 µM (inactive)
GI50 [18]: 13.7 µM (inactive)
GI50 [19]: 13.6 µM (inactive)
GI50 [57]: 15.7 µM (inactive)
GI50 [20]: 16 µM (inactive)
GI50 [21]: 18.5 µM (inactive)
GI50 [59]: 15.3 µM (inactive)
GI50 [22]: 13.8 µM (inactive)
GI50 [23]: 14.2 µM (inactive)
GI50 [24]: 15.4 µM (inactive)
GI50 [25]: 18.3 µM (inactive)
GI50 [26]: > 10 µM (inactive)
GI50 [27]: 16.3 µM (inactive)
GI50 [28]: 23.4 µM (inactive)
GI50 [29]: > 10 µM (inactive)
GI50 [58]: 12.9 µM (inactive)
GI50 [30]: 16.9 µM (inactive)
GI50 [31]: 16 µM (inactive)
GI50 [33]: 23.8 µM (inactive)
GI50 [34]: > 10 µM
GI50 [35]: 13.4 µM (inactive)
GI50 [36]: > 10 µM (inactive)
GI50 [37]: 12.3 µM (inactive)
GI50 [38]: 14 µM (inactive)
GI50 [39]: 12.8 µM (inactive)
GI50 [40]: 14.3 µM (inactive)
GI50 [41]: 9.46 µM (inactive)
GI50 [42]: 16.5 µM (inactive)
GI50 [43]: 16 µM (inactive)
GI50 [44]: 17.5 µM (inactive)
GI50 [45]: 19 µM (inactive)
GI50 [46]: 16.9 µM (inactive)
GI50 [47]: 17.2 µM (inactive)
GI50 [48]: 15.5 µM (inactive)
GI50 [49]: 14.2 µM (inactive)
GI50 [50]: 15.4 µM (inactive)
GI50 [51]: 14.3 µM (inactive)
GI50 [53]: 17.1 µM (inactive)
GI50 [54]: > 10 µM (inactive)
GI50 [55]: 10.3 µM (inactive)
GI50 [56]: 18.2 µM (inactive)
